In US20240158393A1, “PYRIDONE COMPOUNDS AND METHODS OF USE” (Exelixis, Inc., priority 2021, published 2024):
Counter-ions that a name gives are not always drawn.

Each molecule was assayed against T1, Human Mer (Homo sapiens, UniProt Q12866) (assay: Human Mer kinase assay (33P radiometric / HTRF KinEase)). Settings: protocols of Examples C-1 and/or C-2.
T1 construct: Human Mer (residues R557-E882 with H628Q and R794A, 0.7 nM); purchased Eurofins Pharma Discovery Services UK Limited (KinaseProfiler service)
T1 sequence (Q12866 557-882 limits assumed): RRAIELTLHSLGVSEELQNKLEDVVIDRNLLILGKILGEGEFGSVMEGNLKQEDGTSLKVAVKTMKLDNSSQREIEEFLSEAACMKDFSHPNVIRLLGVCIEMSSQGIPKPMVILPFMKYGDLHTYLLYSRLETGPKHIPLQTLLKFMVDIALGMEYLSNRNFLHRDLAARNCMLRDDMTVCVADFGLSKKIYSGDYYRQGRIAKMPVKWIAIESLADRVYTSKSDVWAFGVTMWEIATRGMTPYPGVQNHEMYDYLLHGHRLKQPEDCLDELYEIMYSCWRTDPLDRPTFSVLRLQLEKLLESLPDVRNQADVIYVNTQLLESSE
Type: biochemical
Summary of the method: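 Two formats yield IC50 values. HTRF KinEase used MER residues 528-999 with ATP at Km (40 μM), 1 μM biotin-peptide, 60 min RT, […], 10 concentrations. 33P filter assay used 0.7 nM Mer R557-E882 (H628Q/R794A), 10 μM ATP, 250 μM peptide, 40 min RT, top 1 μM.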

IC50, ≤ 100 nM:
COc1cc2nccc(Oc3ccc(NC(=O)c4cn(C)c(C)c(C5=CCCC5)c4=O)cc3F)c2nc1OC [Compound 1, 5-(Cyclopenten-1-yl)-N-[4-[(6,7-dimethoxy-1,5-naphthyridin-4-yl)oxy]-3-fluorophenyl]-1,6-dimethyl-4-oxopyridine-3-carboxamide]
COc1cc2nccc(Oc3ccc(NC(=O)c4c(C)nc(C)c(C5=CCCC5)c4O)cc3F)c2nc1OC [Compound 1-2, 5-(Cyclopenten-1-yl)-N-[4-[(6,7-dimethoxy-1,5-naphthyridin-4-yl)oxy]-3-fluorophenyl]-4-hydroxy-2,6-dimethylpyridine-3-carboxamide hydrochloride]
COc1cc2nccc(Oc3ccc(NC(=O)c4cnc(C)c(C5=CCOCC5)c4O)cc3F)c2nc1OC [Compound 1-3, 5-(3,6-Dihydro-2H-pyran-4-yl)-N-[4-[(6,7-dimethoxy-1,5-naphthyridin-4-yl)oxy]-3-fluorophenyl]-4-hydroxy-6-methylpyridine-3-carboxamide]
COc1cnc2c(Oc3ccc(NC(=O)c4cnc(C)c(C5=CCOCC5)c4O)cc3F)ccnc2c1 [Compound 1-4, 5-(3,6-Dihydro-2H-pyran-4-yl)-N-[3-fluoro-4-[(7-methoxy-1,5-naphthyridin-4-yl)oxy]phenyl]-4-hydroxy-6-methylpyridine-3-carboxamide]
COc1ccc2nccc(Oc3ccc(NC(=O)c4cnc(C)c(C5=CCOCC5)c4O)cc3F)c2n1 [Compound 1-5, 5-(3,6-Dihydro-2H-pyran-4-yl)-N-[3-fluoro-4-[(6-methoxy-1,5-naphthyridin-4-yl)oxy]phenyl]-4-hydroxy-6-methylpyridine-3-carboxamide]
COc1ccc2nccc(Oc3ccc(NC(=O)c4cnc(C)c(C5=CCCCC5)c4O)cc3F)c2n1 [Compound 1-6, 5-(Cyclohexen-1-yl)-N-[3-fluoro-4-[(6-methoxy-1,5-naphthyridin-4-yl)oxy]phenyl]-4-hydroxy-6-methylpyridine-3-carboxamide]
COc1ccc2nccc(Oc3ccc(NC(=O)c4cnc(C)c(C5=CCCC5)c4O)cc3F)c2n1 [Compound 1-7, 5-(Cyclopenten-1-yl)-N-[3-fluoro-4-[(6-methoxy-1,5-naphthyridin-4-yl)oxy]phenyl]-4-hydroxy-6-methylpyridine-3-carboxamide]
COc1cnc2c(Oc3ccc(NC(=O)c4cnc(C)c(C5=CCCC5)c4O)cc3F)ccnc2c1 [Compound 1-9, 5-(Cyclopenten-1-yl)-N-[3-fluoro-4-[(7-methoxy-1,5-naphthyridin-4-yl)oxy]phenyl]-4-hydroxy-6-methylpyridine-3-carboxamide]
COc1cc2nccc(Oc3ccc(NC(=O)c4cn(C)c(C)c(C5CCCC5)c4=O)cc3F)c2nc1OC [Compound 2, 5-Cyclopentyl-N-[4-[(6,7-dimethoxy-1,5-naphthyridin-4-yl)oxy]-3-fluorophenyl]-1,6-dimethyl-4-oxopyridine-3-carboxamide]
COc1cc2nccc(Oc3ccc(NC(=O)c4c(C)nc(C)c(C5=CCCCC5)c4O)cc3F)c2nc1OC [Compound 2-3, 5-(Cyclohexen-1-yl)-N-[4-[(6,7-dimethoxy-1,5-naphthyridin-4-yl)oxy]-3-fluorophenyl]-4-hydroxy-2,6-dimethylpyridine-3-carboxamide]
C=C(C)c1c(C)nc(C)c(C(=O)Nc2cc(F)c(Oc3ccnc4cc(OC)c(OC)nc34)cc2F)c1O [Compound 6, N-[4-[(6,7-Dimethoxy-1,5-naphthyridin-4-yl)oxy]-2,5-difluorophenyl]-4-hydroxy-2,6-dimethyl-5-prop-1-en-2-ylpyridine-3-carboxamide]
COc1cnc2c(Oc3ccc(NC(=O)c4cnc(C)c(C5=CCOCC5)c4O)cc3)ccnc2c1 [Compound 7, 5-(3,6-Dihydro-2H-pyran-4-yl)-4-hydroxy-N-[4-[(7-methoxy-1,5-naphthyridin-4-yl)oxy]phenyl]-6-methylpyridine-3-carboxamide]
COc1cc2nccc(Oc3ccc(NC(=O)c4cn(CCF)c(C)c(C5=CCCCC5)c4=O)cc3F)c2nc1OC [Compound 8, 5-(Cyclohexen-1-yl)-N-[4-[(6,7-dimethoxy-1,5-naphthyridin-4-yl)oxy]-3-fluorophenyl]-1-(2-fluoroethyl)-6-methyl-4-oxopyridine-3-carboxamide]
COc1cc2nccc(Oc3ccc(NC(=O)c4c(C)nc(C)c(C(C)C)c4O)cc3)c2nc1OC [Compound 9, N-[4-[(6,7-Dimethoxy-1,5-naphthyridin-4-yl)oxy]phenyl]-4-hydroxy-2,6-dimethyl-5-propan-2-ylpyridine-3-carboxamide]
COc1cc2nccc(Oc3cc(F)c(NC(=O)c4c(C)nc(C)c(C(C)C)c4O)cc3F)c2nc1OC [Compound 10, N-[4-[(6,7-Dimethoxy-1,5-naphthyridin-4-yl)oxy]-2,5-difluorophenyl]-4-hydroxy-2,6-dimethyl-5-propan-2-ylpyridine-3-carboxamide]
COc1cc2nccc(Oc3ccc(NC(=O)c4cn(CCF)c(C)c(C5=CCCC5)c4=O)cc3F)c2nc1OC [Compound 11, 5-(Cyclopenten-1-yl)-N-[4-[(6,7-dimethoxy-1,5-naphthyridin-4-yl)oxy]-3-fluorophenyl]-1-(2-fluoroethyl)-6-methyl-4-oxopyridine-3-carboxamide]
COc1cnc2c(Oc3ccc(NC(=O)c4cn(C)c(C)c(C5=CCOCC5)c4=O)cc3F)ccnc2c1 [Compound 12, 5-(3,6-Dihydro-2H-pyran-4-yl)-N-[3-fluoro-4-[(7-methoxy-1,5-naphthyridin-4-yl)oxy]phenyl]-1,6-dimethyl-4-oxopyridine-3-carboxamide]
COc1cc2nccc(Oc3ccc(NC(=O)c4cn(CCF)c(C)c(C5CCCC5)c4=O)cc3F)c2nc1OC [Compound 13, 5-Cyclopentyl-N-[4-[(6,7-dimethoxy-1,5-naphthyridin-4-yl)oxy]-3-fluorophenyl]-1-(2-fluoroethyl)-6-methyl-4-oxopyridine-3-carboxamide]
COc1cc2nccc(Oc3ccc(NC(=O)c4c(C)cc(C)n(C5=CCCC5)c4=O)cc3F)c2nc1OC [Compound 14, 1-(Cyclopenten-1-yl)-N-[4-[(6,7-dimethoxy-1,5-naphthyridin-4-yl)oxy]-3-fluorophenyl]-4,6-dimethyl-2-oxopyridine-3-carboxamide]
COc1cc2nccc(Oc3ccc(NC(=O)c4c(C)cc(C)n(C5CCCC5)c4=O)cc3F)c2nc1OC [Compound 15, 1-Cyclopentyl-N-[4-[(6,7-dimethoxy-1,5-naphthyridin-4-yl)oxy]-3-fluorophenyl]-4,6-dimethyl-2-oxopyridine-3-carboxamide]
COc1cc2nccc(Oc3ccc(NC(=O)c4cnc(C)c(C5=CCCC5)c4O)cc3)c2cc1OC [Compound 16, 5-(Cyclopenten-1-yl)-N-[4-(6,7-dimethoxyquinolin-4-yl)oxyphenyl]-4-hydroxy-6-methylpyridine-3-carboxamide]
COc1cc2nccc(Oc3ccc(NC(=O)c4cnc(C)c(C5=CCOCC5)c4O)cc3)c2cc1OC [Compound 17, 5-(3,6-Dihydro-2H-pyran-4-yl)-N-[4-(6,7-dimethoxyquinolin-4-yl)oxyphenyl]-4-hydroxy-6-methylpyridine-3-carboxamide]
COc1cc2nccc(Oc3ccc(NC(=O)c4cnc(C)c(C5=CCCC5)c4O)cc3F)c2cc1OC [Compound 18, 5-(Cyclopenten-1-yl)-N-[4-(6,7-dimethoxyquinolin-4-yl)oxy-3-fluorophenyl]-4-hydroxy-6-methylpyridine-3-carboxamide]
COc1cc2nccc(Oc3ccc(NC(=O)c4cnc(C)c(C5=CCOCC5)c4O)cc3F)c2cc1OC [Compound 19, 5-(3,6-Dihydro-2H-pyran-4-yl)-N-[4-(6,7-dimethoxyquinolin-4-yl)oxy-3-fluorophenyl]-4-hydroxy-6-methylpyridine-3-carboxamide]
C=C(C)n1c(C)cc(C)c(C(=O)Nc2ccc(Oc3ccnc4cc(OC)c(OC)nc34)c(F)c2)c1=O [Compound 20, N-[4-[(6,7-Dimethoxy-1,5-naphthyridin-4-yl)oxy]-3-fluorophenyl]-4,6-dimethyl-2-oxo-1-prop-1-en-2-ylpyridine-3-carboxamide]
C=C(C)n1c(C)cc(C)c(C(=O)Nc2ccc(Oc3ccnc4cc(OC)cnc34)c(F)c2)c1=O [Compound 21, N-[3-Fluoro-4-[(7-methoxy-1,5-naphthyridin-4-yl)oxy]phenyl]-4,6-dimethyl-2-oxo-1-prop-1-en-2-ylpyridine-3-carboxamide]
COc1cc2nccc(Oc3ccc(NC(=O)c4c(C)c(Br)c(C)n(C5CCCC5)c4=O)cc3F)c2nc1OC [Compound 22, 5-Bromo-1-cyclopentyl-N-[4-[(6,7-dimethoxy-1,5-naphthyridin-4-yl)oxy]-3-fluorophenyl]-4,6-dimethyl-2-oxopyridine-3-carboxamide]
